Eleven molecules from ChEMBL document CHEMBL1201862, “PubChem BioAssay data set” (2004) can be followed below.

Test systems include SK-MEL-28; SR; KM12; OVCAR-3; IGROV-1; 786-0; COLO 205; UO-31; MDA-N; DU-145; OVCAR-4; NCI-H522; MOLT-4; U-251; CCRF-CEM; HCC 2998; TK-10; RXF 393; A549; EKVX.
Common to all, as to experiment: inhibition of tumour cell growth, NCI panel, 48 h

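Compound exposure: 48 hours, 5 concentrations, 96-well plates. GI50: concentration for 50% inhibition of growth.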 The source made the active and inactive calls. Rule as the data show it: active = GI50 up to about 1.1 µM and inactive = higher. Square brackets hold non-standard residues; d marks the D form. Peptide text beside a SMILES is read from it. * marks the point of attachment. Phe(4-NO2) = N[CH](Cc1ccc([N+](=O)[O-])cc1)C(=O)O; Boc = CC(C)(C)OC(=O)*

With `C=CCn1c(S)nnc1C12CC3CC(CC(C3)C1)C2`, the GI50 was > 100 µM (inactive) with SK-MEL-28; 1.51 µM (inactive) in the test on SR; 75.5 µM (inactive) in the test on KM12; 59.4 µM (inactive) with OVCAR-3; > 100 µM (inactive) with IGROV-1; > 100 µM (inactive) in the test on 786-0. The GI50 in the test with COLO 205 was > 100 µM (inactive); with UO-31, 33 µM (inactive); with MDA-N, 45.4 µM (inactive); in the test on DU-145, 69.3 µM (inactive); with OVCAR-4, 58.7 µM (inactive); in the test on NCI-H522, 25 µM (inactive). In addition, the GI50 was 20.9 µM (inactive) in the test with MOLT-4; 86.9 µM (inactive) in the test with U-251; 20.1 µM (inactive) with CCRF-CEM; 76.4 µM (inactive) in the test with HCC 2998; 50.7 µM (inactive) in the test with TK-10; > 100 µM (inactive) in the test on RXF 393.
For the molecule `CC1OC(OC2C(O[C@H]3CC[C@@]4(C)C(=CC[C@H]5[C@@H]6C[C@@H]7O[C@]8(CC[C@@H](C)CO8)[C@@H](C)[C@@H]7[C@@]6(C)CC[C@@H]54)C3)OC(CO)C(O)C2OC2OC(CO)C(O)C(O)C2O)C(O)C(O)C1O` (stereo not given in full), the GI50 with SK-MEL-28 is 1.9 µM (inactive); in the test on SR, > 100 µM (inactive); in the test on KM12 it was 2.21 µM (inactive); in the test with OVCAR-3, 1.08 µM (active); in the test with A549, 1.81 µM (inactive); in the test on IGROV-1 it was 1.76 µM (inactive). For the same molecule, the GI50 is 1.77 µM (inactive) in the test with 786-0; 12.4 µM (inactive) with EKVX; 1.73 µM (inactive) in the test on COLO 205; 1.94 µM (inactive) in the test on UO-31; 1.72 µM (inactive) with MDA-N; 2.08 µM (inactive) in the test with DU-145. Also, the GI50 is 1.58 µM (inactive) in the test on OVCAR-4; 1.86 µM (inactive) in the test on NCI-H522; 1.89 µM (inactive) with U-251; 14.3 µM (inactive) with CCRF-CEM; 1.65 µM (inactive) in the test with HCC 2998; 1.93 µM (inactive) in the test with TK-10. For the same molecule, the GI50 in the test on RXF 393 was 2.17 µM (inactive).
Take `CCCCn1c(C)c(C(=O)OCC)s/c1=N/Nc1nc2ccccc2nc1-c1ccccc1`: the GI50 in the test on SK-MEL-28 is > 100 µM (inactive); in the test on SR it was > 100 µM (inactive); with OVCAR-3, 72.1 µM (inactive); in the test with A549, 50.4 µM (inactive); in the test with IGROV-1 it was 75.7 µM (inactive); in the test on 786-0, 49.1 µM (inactive). Besides, the GI50 with EKVX is > 100 µM (inactive); in the test with COLO 205 it was > 100 µM (inactive); in the test with MDA-N, > 100 µM (inactive); with DU-145, 37.7 µM (inactive); in the test on OVCAR-4 it was 65 µM (inactive); in the test on NCI-H522 it was 41.2 µM (inactive). The GI50 is > 100 µM (inactive) with MOLT-4; 43.6 µM (inactive) in the test on U-251; > 100 µM (inactive) in the test with CCRF-CEM; > 100 µM (inactive) in the test with HCC 2998; > 100 µM (inactive) in the test on TK-10; > 100 µM (inactive) with RXF 393.
Regarding `NCCCCCNOCCCN`, the GI50 in the test with SK-MEL-28, with SR, in the test with KM12, in the test on OVCAR-3, with A549 and in the test on IGROV-1 was > 100 µM (inactive) each time. Besides, the GI50 with 786-0, in the test on EKVX, in the test with COLO 205, in the test with UO-31, with MDA-N and with DU-145 was > 100 µM (inactive) in each case. Besides, the GI50 in the test on OVCAR-4, in the test on NCI-H522, in the test on MOLT-4, in the test with U-251, in the test with CCRF-CEM and with HCC 2998 was > 100 µM (inactive) in each case. The GI50 in the test with TK-10 was > 100 µM (inactive).
Take `O=S(=O)(Nc1nc2ccccc2nc1Nc1cccc2ccccc12)c1ccccc1`: the GI50 is 25.9 µM (inactive) in the test with SK-MEL-28; > 100 µM (inactive) in the test on SR; 5.61 µM (inactive) with KM12; 4.67 µM (inactive) in the test on OVCAR-3; 7.35 µM (inactive) in the test on A549; 5.9 µM (inactive) in the test with IGROV-1. Besides, the GI50 was 17 µM (inactive) with 786-0; 8.97 µM (inactive) with EKVX; 2.43 µM (inactive) in the test with UO-31; > 100 µM (inactive) in the test on MDA-N; > 100 µM (inactive) in the test with DU-145; 1.24 µM (inactive) with OVCAR-4. For the same molecule, the GI50 in the test with U-251 is 5.52 µM (inactive); in the test with HCC 2998, 2.16 µM (inactive); in the test on TK-10, 8.93 µM (inactive); in the test with RXF 393 it was 17.5 µM (inactive).
For `N/N=C1\C(OC(=O)Nc2ccccc2)=Nc2ccccc21`, the GI50 in the test on SK-MEL-28 is 60 µM (inactive); in the test on SR it was 25.6 µM (inactive); in the test with KM12, 13.1 µM (inactive); with OVCAR-3, 11.2 µM (inactive); with A549 it was 17 µM (inactive); in the test with IGROV-1, 14.8 µM (inactive). For the same molecule, the GI50 with 786-0 is 16.4 µM (inactive); with EKVX, 18.2 µM (inactive); in the test with COLO 205, 17.3 µM (inactive); in the test with UO-31, 12.7 µM (inactive); with MDA-N it was 19.1 µM (inactive); in the test on DU-145, 10.8 µM (inactive). The GI50 in the test on OVCAR-4 was 12.8 µM (inactive); with NCI-H522, 13.7 µM (inactive); in the test with U-251 it was 16 µM (inactive); with HCC 2998, 15.3 µM (inactive); in the test on TK-10, 23 µM (inactive); with RXF 393, 15.4 µM (inactive).
In the case of `COC(O)C(=O)c1c2c(cc3c1CCC3)CCC2` (stereo not given), the GI50 with SK-MEL-28 was > 100 µM (inactive); with SR, 66.2 µM (inactive); in the test on KM12, 70.1 µM (inactive); with OVCAR-3, > 100 µM (inactive); with A549 it was > 100 µM (inactive); in the test on IGROV-1, > 100 µM (inactive). The GI50 in the test with 786-0, in the test with EKVX, with COLO 205, with UO-31, in the test on MDA-N and in the test on DU-145 was > 100 µM (inactive) each time. For the same molecule, the GI50 in the test with OVCAR-4 was > 100 µM (inactive); in the test on NCI-H522 it was > 100 µM (inactive); with MOLT-4 it was > 100 µM (inactive); in the test on U-251, > 100 µM (inactive); with CCRF-CEM it was 55 µM (inactive); in the test with HCC 2998, > 100 µM (inactive). In addition, the GI50 in the test on TK-10 is > 100 µM (inactive).
With `O=C(C[N+]12CN3CN(CN(C3)C1)C2)c1ccc(-c2ccccc2)cc1`, the GI50 in the test with SK-MEL-28 is 17.6 µM (inactive); with SR, 3.2 µM (inactive); with KM12 it was 32 µM (inactive); in the test on OVCAR-3 it was 29.3 µM (inactive); with A549 it was 30.1 µM (inactive); in the test with IGROV-1 it was 24.3 µM (inactive). Further, the GI50 in the test on 786-0 was 17.7 µM (inactive); with EKVX, 19.8 µM (inactive); in the test on UO-31, 23.4 µM (inactive); in the test on MDA-N it was 21.8 µM (inactive); in the test on DU-145, 17.6 µM (inactive); in the test with OVCAR-4 it was 51.4 µM (inactive). For the same molecule, the GI50 with NCI-H522 is 19.3 µM (inactive); in the test on MOLT-4, 16.7 µM (inactive); in the test on U-251, 16.8 µM (inactive); in the test with CCRF-CEM, 1.71 µM (inactive); in the test on HCC 2998, 15.4 µM (inactive); in the test on TK-10, 21.2 µM (inactive). In the test on RXF 393, the GI50 was 19.1 µM (inactive).
For `COc1ccc(Nc2nc3cc(C(F)(F)F)ccc3n3cccc23)cc1OC`, the GI50 was 28.2 µM (inactive) with SK-MEL-28; 9.89 µM (inactive) in the test on SR; 10.3 µM (inactive) in the test on KM12; 20.7 µM (inactive) in the test with OVCAR-3; 14.1 µM (inactive) in the test on A549; 25.5 µM (inactive) in the test on IGROV-1. The GI50 in the test with 786-0 was 8.15 µM (inactive); in the test with EKVX, 20.3 µM (inactive); in the test with UO-31, 22.8 µM (inactive); in the test on MDA-N, 12.6 µM (inactive); in the test with DU-145 it was 20.3 µM (inactive); in the test with NCI-H522 it was 16 µM (inactive). The GI50 in the test with MOLT-4 is 7.85 µM (inactive); in the test on U-251, 15.2 µM (inactive); in the test on CCRF-CEM, 10.7 µM (inactive); with HCC 2998 it was 14 µM (inactive); in the test on TK-10, 12.6 µM (inactive); in the test with RXF 393, 10.8 µM (inactive).
Take `CCOC(=O)C(=CNC(=S)N/N=C1\C(=O)Nc2ccccc21)C(=O)OCC`: the GI50 is > 100 µM (inactive) in the test with SK-MEL-28; 69.3 µM (inactive) with SR; 52 µM (inactive) in the test with KM12; 46.2 µM (inactive) with OVCAR-3; > 100 µM (inactive) in the test on A549; > 100 µM (inactive) in the test with 786-0. The GI50 was 99.1 µM (inactive) with COLO 205; 29 µM (inactive) in the test on UO-31; > 100 µM (inactive) in the test on MDA-N; > 100 µM (inactive) in the test with DU-145; > 100 µM (inactive) with OVCAR-4; 84.7 µM (inactive) in the test with MOLT-4. Moreover, the GI50 in the test on U-251 was > 100 µM (inactive); with CCRF-CEM, 41.9 µM (inactive); with HCC 2998, > 100 µM (inactive); in the test on TK-10, 59.2 µM (inactive); in the test on RXF 393 it was > 100 µM (inactive).
Turning to `CNC(=O)CCC(NC(=O)OC(C)(C)C)C(=O)NC(Cc1ccc([N+](=O)[O-])cc1)C(=O)NCC(=O)NC` (stereo not given) (Boc-Glu(NHMe)-[Phe(4-NO2)]-Gly-NHMe; configuration not given here), the GI50 in the test on SK-MEL-28, in the test with SR, in the test on KM12, in the test with OVCAR-3, with A549 and in the test on IGROV-1 was > 100 µM (inactive) each time. Also, the GI50 in the test on 786-0, with EKVX, with COLO 205, with UO-31, in the test on MDA-N and in the test with DU-145 was > 100 µM (inactive) in each case. The GI50 with OVCAR-4, in the test with NCI-H522, with MOLT-4, in the test with U-251, in the test with HCC 2998 and in the test on TK-10 was > 100 µM (inactive) each time. Also, in the test on RXF 393, the GI50 is > 100 µM (inactive).
